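Dose response: 5 concentrations. Exposure: 48 h. Format: 96-well plates. Endpoint: linear interpolation; highest concentration if not reached. The concentration for 50% growth inhibition is given as GI50.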 Calls of active or inactive are those of the source. Rule as the data show it: active = GI50 up to about 1.1 µM and inactive = higher.
Legend:
Assay in all cases: NCI tumour cell line growth inhibition, 48 h
HCT-116 = test system: HCT-116
LOX IMVI = test system: LOX IMVI
K562 = test system: K562
CCRF-CEM = test system: CCRF-CEM
NCI-H460 = test system: NCI-H460
UACC-62 = test system: UACC-62
ACHN = test system: ACHN
UACC-257 = test system: UACC-257
SF-295 = test system: SF-295
SNB-19 = test system: SNB-19
NCI-H226 = test system: NCI-H226
MCF7 = test system: MCF7
SK-MEL-2 = test system: SK-MEL-2
HCC 2998 = test system: HCC 2998
TK-10 = test system: TK-10
KM12 = test system: KM12
MDA-MB-231 = test system: MDA-MB-231
EKVX = test system: EKVX
UO-31 = test system: UO-31
HCT-15 = test system: HCT-15
RPMI-8226 = test system: RPMI-8226
Hs-578T = test system: Hs-578T
HOP-62 = test system: HOP-62
MOLT-4 = test system: MOLT-4
OVCAR-8 = test system: OVCAR-8
SN12C = test system: SN12C
MDA-N = test system: MDA-N
NCI-H23 = test system: NCI-H23
A549 = test system: A549
SR = test system: SR
Malme-3M = test system: Malme-3M
PC-3 = test system: PC-3
T47D = test system: T47D
COLO 205 = test system: COLO 205
HT-29 = test system: HT-29
SK-MEL-28 = test system: SK-MEL-28
M14 = test system: M14
SK-MEL-5 = test system: SK-MEL-5
SF-268 = test system: SF-268
OVCAR-5 = test system: OVCAR-5
HL-60 = test system: HL-60
NCI/ADR-RES = test system: NCI/ADR-RES
IGROV-1 = test system: IGROV-1
SW-620 = test system: SW-620
U-251 = test system: U-251
SK-OV-3 = test system: SK-OV-3
CAKI-1 = test system: CAKI-1
SNB-75 = test system: SNB-75
A498 = test system: A498
786-0 = test system: 786-0
SF-539 = test system: SF-539
DU-145 = test system: DU-145

C#CCOCn1cc(C)c(=O)[nH]c1=O
GI50 (HCT-116): > 100 µM (inactive)
GI50 (LOX IMVI): > 100 µM (inactive)
GI50 (K562): > 100 µM (inactive)
GI50 (CCRF-CEM): > 100 µM (inactive)
GI50 (NCI-H460): > 100 µM (inactive)
GI50 (UACC-62): > 100 µM (inactive)
GI50 (ACHN): > 100 µM (inactive)
GI50 (UACC-257): > 100 µM (inactive)
GI50 (SF-295): > 100 µM (inactive)
GI50 (SNB-19): > 100 µM (inactive)
GI50 (NCI-H226): > 100 µM (inactive)
GI50 (MCF7): > 100 µM (inactive)
GI50 (SK-MEL-2): > 100 µM (inactive)
GI50 (HCC 2998): > 100 µM (inactive)
GI50 (TK-10): > 100 µM (inactive)
GI50 (KM12): > 100 µM (inactive)
GI50 (MDA-MB-231): > 100 µM (inactive)
GI50 (EKVX): > 100 µM (inactive)
GI50 (UO-31): > 100 µM (inactive)
GI50 (HCT-15): > 100 µM
GI50 (RPMI-8226): > 100 µM (inactive)
GI50 (Hs-578T): > 100 µM (inactive)
GI50 (HOP-62): > 100 µM (inactive)
GI50 (MOLT-4): > 100 µM (inactive)
GI50 (OVCAR-8): > 100 µM (inactive)
GI50 (SN12C): > 100 µM (inactive)
GI50 (MDA-N): > 100 µM (inactive)
GI50 (NCI-H23): > 100 µM (inactive)
GI50 (A549): > 100 µM (inactive)
GI50 (SR): > 100 µM (inactive)
GI50 (Malme-3M): > 100 µM (inactive)
GI50 (PC-3): > 100 µM (inactive)
GI50 (T47D): > 100 µM (inactive)
GI50 (COLO 205): > 100 µM (inactive)
GI50 (HT-29): > 100 µM (inactive)
GI50 (SK-MEL-28): > 100 µM (inactive)
GI50 (M14): > 100 µM (inactive)
GI50 (SK-MEL-5): > 100 µM (inactive)
GI50 (SF-268): > 100 µM (inactive)
GI50 (OVCAR-5): > 100 µM (inactive)
GI50 (HL-60): > 100 µM (inactive)
GI50 (NCI/ADR-RES): > 100 µM (inactive)
GI50 (IGROV-1): > 100 µM (inactive)
GI50 (SW-620): > 100 µM (inactive)
GI50 (U-251): > 100 µM (inactive)
GI50 (SK-OV-3): > 100 µM (inactive)
GI50 (CAKI-1): > 100 µM (inactive)
GI50 (SNB-75): > 100 µM (inactive)
GI50 (A498): > 100 µM (inactive)
GI50 (786-0): > 100 µM (inactive)
GI50 (SF-539): > 100 µM (inactive)
GI50 (DU-145): > 100 µM (inactive)

Source: ChEMBL document CHEMBL1201862, “PubChem BioAssay data set” (2004)
